Laboratory results: publication PMC6130205 (Journal of medicinal chemistry, 2018)

Columns and labels:
Type in all cases: biochemical
SIRT1 [1] = molecular target: T1, SIRT1 (Homo sapiens, UniProt Q96EB6); test: fluorometric substrate cleavage
T1 sequence (Q96EB6 2-747): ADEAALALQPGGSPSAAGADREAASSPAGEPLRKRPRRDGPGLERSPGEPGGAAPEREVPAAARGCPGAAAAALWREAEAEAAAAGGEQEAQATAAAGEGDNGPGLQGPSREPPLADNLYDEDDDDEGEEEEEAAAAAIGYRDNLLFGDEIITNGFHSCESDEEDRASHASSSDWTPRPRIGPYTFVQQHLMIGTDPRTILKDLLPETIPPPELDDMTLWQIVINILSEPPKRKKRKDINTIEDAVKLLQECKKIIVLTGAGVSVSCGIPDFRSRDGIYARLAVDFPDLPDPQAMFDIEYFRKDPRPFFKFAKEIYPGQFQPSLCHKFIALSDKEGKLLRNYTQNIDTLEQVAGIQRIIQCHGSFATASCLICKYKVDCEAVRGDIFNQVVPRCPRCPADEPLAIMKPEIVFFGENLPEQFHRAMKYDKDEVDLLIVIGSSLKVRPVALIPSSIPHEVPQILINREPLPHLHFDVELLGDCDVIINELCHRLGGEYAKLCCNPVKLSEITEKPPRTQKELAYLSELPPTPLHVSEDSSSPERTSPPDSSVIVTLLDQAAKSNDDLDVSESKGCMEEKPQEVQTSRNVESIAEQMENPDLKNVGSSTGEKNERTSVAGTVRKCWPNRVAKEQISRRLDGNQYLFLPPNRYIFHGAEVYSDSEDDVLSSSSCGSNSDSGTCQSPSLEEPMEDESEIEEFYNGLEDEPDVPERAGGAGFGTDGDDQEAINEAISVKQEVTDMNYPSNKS

SIRT1 [2] = molecular target: T1, SIRT1; test: fluorometric substrate cleavage kinetics
SIRT1 [3] = molecular target: T1, SIRT1; test: in vitro SIRT1 reaction monitored by […] NMR

fluorometric substrate cleavage (Kcat) (SIRT1 [1]) | fluorometric substrate cleavage kinetics (Kcat/Km) (SIRT1 [2]) [M⁻¹ s⁻¹] | SMILES | also measured
(0.41 ± 0.014) × 10^−3 s^−1 |  | Cc1cc(=O)oc2cc(NC(=O)[C@H](CCCCNC(=O)c3ccccc3)NC(=O)OCc3ccccc3)ccc12 [compound 1, Benzyl (6-Benzamido-1-((4-methyl-2-oxo-2H-chromen-7-yl)-amino)-1-oxohexan-2-yl)carbamate] | 
 | 26.02 ± 7.07 | Cc1cc(=O)oc2cc(NC(=O)[C@H](CCCCNC(=O)c3ccccc3F)NC(=O)OCc3ccccc3)ccc12 [compound 2, Benzyl (6-(2-Fluorobenzamido)-1-((4-methyl-2-oxo-2H-chromen-7-yl)amino)-1-oxohexan-2-yl)carbamate] | 
 | 63.39 ± 4.32 | Cc1cc(=O)oc2cc(NC(=O)[C@H](CCCCNC(=O)c3cccc(F)c3)NC(=O)OCc3ccccc3)ccc12 [compound 3, Benzyl (6-(3-Fluorobenzamido)-1-((4-methyl-2-oxo-2H-chromen-7-yl)amino)-1-oxohexan-2-yl)carbamate] | 
 | 16.08 ± 1.32 | Cc1cc(=O)oc2cc(NC(=O)[C@H](CCCCNC(=O)c3ccc(F)cc3)NC(=O)OCc3ccccc3)ccc12 [compound 4, Benzyl (6-(4-Fluorobenzamido)-1-((4-methyl-2-oxo-2H-chromen-7-yl)amino)-1-oxohexan-2-yl)carbamate] | 
(0.37 ± 0.02) × 10^−3 s^−1 |  | Cc1cc(=O)oc2cc(NC(=O)[C@H](CCCCNC(=O)Cc3ccccc3)NC(=O)OCc3ccccc3)ccc12 [compound 7] | 
 |  | O=C(CCCCCNC(=O)c1ccccc1F)Nc1ccccc1 [compound 12, 2-FBzAHA] | in vitro SIRT1 reaction monitored by 19F NMR (SIRT1 [3]): The enzymatic cleavage of 2F-BzAHA by SIRT1 was validated using an in vitro SIRT1 enzyme assay

SMILES | fluorometric substrate cleavage (Kcat) (SIRT1 [1]) | fluorometric substrate cleavage kinetics (Kcat/Km) (SIRT1 [2]) [M⁻¹ s⁻¹] | also measured
CCc1ccc(C(=O)NCCCC[C@H](NC(=O)OCc2ccccc2)C(=O)Nc2ccc3c(C)cc(=O)oc3c2)cc1 [compound 5, Benzyl (6-(4-Ethylbenzamido)-1-((4-methyl-2-oxo-2H-chromen-7-yl)amino)-1-oxohexan-2-yl)carbamate] | the 4-ethyl substitution increased the Kcat for SIRT1 but only minimally |  | 
